Source: patent US4670461A, “Formaldehyde derivatives of mitindomide” (priority 1984, dated 1987)
Values after ≈ are worked out from the molar mass of the structure shown.

Legend:
Water solubility = format: physicochemical; details: for solubility: read-out: H2O Sol. % (g per 100 ml H2O)
L1210 leukemia [1] = experiment: S.C. implanted L1210 leukemia in mice (CD2F1); format: in vivo
Description: ^a Experimental formulation of mitindomide was used (NaOH + manitol).

L1210 leukemia [2] = experiment: IP implanted L1210 leukemia in mice (CD2F1); format: in vivo
P388 = experiment: IP P388, Days 1-9 (NCI murine test system); format: in vivo; details: IP P388, Days 1-9, dose 400
Description: Anti-tumor or anti-neoplastic activity of the novel derivatives of the present invention is determined by using the murine test system for screening anti-cancer compounds as standardized by the National Cancer Institute, Bethesda, Md., U.S.A., and described in Cancer Chemotherapy Reports, 3 (2) 1-103 (1972) which publication is incorporated herein by reference.
It is noted that although the intraperitoneal mode of administration of the novel derivatives is preferred, other modes of parenteral administration, e.g. subcutaneous, intravenous, etc., are, of course, possible and included within the purview of this invention. Similarly, although water has been used as a vehicle for the administration of the compounds of the present invention, other pharmaceutically acceptable vehicles, e.g. saline, buffers, and other aqueous media may also be used for the administration of these compounds together with adjuvants, agents or additives commonly employed in the preparation of pharmaceutical compositions. Examples of such agents, additives and adjuvants that may be employed are listed in Instruction 14, Screening Data Summary Interpretation and Outline of Clinical Screen. Drug Evaluation Branch, NCI. and are incorporated herein by reference.

[3] = 21.6 mg/kg ip days 1-9, Expt. 1
[4] = 21.6 mg/kg ip days 1-9, Expt. 2
[5] = 36.0 mg/kg ip days 1-9, Expt. 1
[6] = 36.0 mg/kg ip days 1-9, Expt. 2
[7] = 60.0 mg/kg ip days 1-9, Expt. 1
[8] = 60.0 mg/kg ip days 1-9, Expt. 2
[9] = 100.0 mg/kg ip days 1-9, Expt. 1
[10] = 100.0 mg/kg ip days 1-9, Expt. 2
[11] = 166.7 mg/kg ip days 1-9, Expt. 2
[12] = 21.6 mg/kg IP days 1-9, Expt. 1
[13] = 21.6 mg/kg IP days 1-9, Expt. 2
[14] = 21.6 mg/kg IP days 1-9, Expt. 3
[15] = 166.7 mg/kg IP days 1-9, Expt. 1
[16] = 166.7 mg/kg IP days 1-9, Expt. 3

O=C1C2C3C=CC(C2C(=O)N1CO)C1C2C(=O)N(CO)C(=O)C2C31 (centres unmarked) [Example 2, 4,8-Ethenopyrrolo[3',4':3,4]cyclobut[1,2-f]isoindole-1,3,5,7(2H,6H)-tetrone,3a,3b,4,4a,7a,8,8a,8b-octahydro-2-,6-bis(hydroxymethyl)-]
solubility (Water solubility; water): 8000 µg/mL (≈ 24.1 mM)

CN1CCN(CN2C(=O)C3C4C=CC(C3C2=O)C2C3C(=O)N(CN5CCN(C)CC5)C(=O)C3C42)CC1 (centres unmarked) [Example 3, 4,8-Ethenopyrrolo[3'4':3,4]cyclobut[1,2-f]isoindole-1,3,5,7(2H,6H)-tetrone,3a,3b,4,4a,7a,8,8a,8b-octahydro-2,6-bis(N-methylpiperazinomethyl)]
ILS (L1210 leukemia [1]; [3]): 6%
MST (L1210 leukemia [1]; [3]): 8.7 days
Wt. Change (L1210 leukemia [1]; [3]): -0.3 g
ILS (L1210 leukemia [1]; [4]): 10%
MST (L1210 leukemia [1]; [4]): 11.8 days
Wt. Change (L1210 leukemia [1]; [4]): 0.2 g
ILS (L1210 leukemia [1]; [5]): 13%
MST (L1210 leukemia [1]; [5]): 9.3 days
Wt. Change (L1210 leukemia [1]; [5]): -1.0 g
ILS (L1210 leukemia [1]; [6]): 5%
MST (L1210 leukemia [1]; [6]): 11.3 days
Wt. Change (L1210 leukemia [1]; [6]): -0.4 g
ILS (L1210 leukemia [1]; [7]): 70%
MST (L1210 leukemia [1]; [7]): 14.0 days
Wt. Change (L1210 leukemia [1]; [7]): -4.2 g
ILS (L1210 leukemia [1]; [8]): 14%
MST (L1210 leukemia [1]; [8]): 12.3 days
Wt. Change (L1210 leukemia [1]; [8]): -0.7 g
ILS (L1210 leukemia [1]; [9]): 143%
MST (L1210 leukemia [1]; [9]): 20.0 days
Wt. Change (L1210 leukemia [1]; [9]): -5.3 g
ILS (L1210 leukemia [1]; [10]): 72%
MST (L1210 leukemia [1]; [10]): 18.5 days
Wt. Change (L1210 leukemia [1]; [10]): -3.1 g
ILS (L1210 leukemia [1]; [11]): 133%
MST (L1210 leukemia [1]; [11]): 25.0 days
Wt. Change (L1210 leukemia [1]; [11]): -4.9 g
ILS (L1210 leukemia [2]; [12]): 4%
MST (L1210 leukemia [2]; [12]): 9.1 days
Wt. Change (L1210 leukemia [2]; [12]): 1.9 g
ILS (L1210 leukemia [2]; [13]): 3%
MST (L1210 leukemia [2]; [13]): 8.3 days
Wt. Change (L1210 leukemia [2]; [13]): 0.7 g
ILS (L1210 leukemia [2]; [14]): 9%
MST (L1210 leukemia [2]; [14]): 9.0 days
Wt. Change (L1210 leukemia [2]; [14]): 0.2 g
ILS (L1210 leukemia [2]; 36 mg/kg IP days 1-9, Expt. 1): 5%
MST (L1210 leukemia [2]; 36 mg/kg IP days 1-9, Expt. 1): 9.2 days
Wt. Change (L1210 leukemia [2]; 36 mg/kg IP days 1-9, Expt. 1): 1.7 g
ILS (L1210 leukemia [2]; 36 mg/kg IP days 1-9, Expt. 2): 12%
MST (L1210 leukemia [2]; 36 mg/kg IP days 1-9, Expt. 2): 9.0 days
Wt. Change (L1210 leukemia [2]; 36 mg/kg IP days 1-9, Expt. 2): -0.5 g
ILS (L1210 leukemia [2]; 36 mg/kg IP days 1-9, Expt. 3): 9%
MST (L1210 leukemia [2]; 36 mg/kg IP days 1-9, Expt. 3): 9.0 days
Wt. Change (L1210 leukemia [2]; 36 mg/kg IP days 1-9, Expt. 3): 0.2 g
ILS (L1210 leukemia [2]; 60 mg/kg IP days 1-9, Expt. 1): 37%
MST (L1210 leukemia [2]; 60 mg/kg IP days 1-9, Expt. 1): 12.0 days
Wt. Change (L1210 leukemia [2]; 60 mg/kg IP days 1-9, Expt. 1): -0.4 g
ILS (L1210 leukemia [2]; 60 mg/kg IP days 1-9, Expt. 2): 75%
MST (L1210 leukemia [2]; 60 mg/kg IP days 1-9, Expt. 2): 14.0 days
Wt. Change (L1210 leukemia [2]; 60 mg/kg IP days 1-9, Expt. 2): -4.4 g
ILS (L1210 leukemia [2]; 60 mg/kg IP days 1-9, Expt. 3): 46%
MST (L1210 leukemia [2]; 60 mg/kg IP days 1-9, Expt. 3): 12.0 days
Wt. Change (L1210 leukemia [2]; 60 mg/kg IP days 1-9, Expt. 3): -1.3 g
ILS (L1210 leukemia [2]; 100 mg/kg IP days 1-9, Expt. 1): 37%
MST (L1210 leukemia [2]; 100 mg/kg IP days 1-9, Expt. 1): 12.0 days
Wt. Change (L1210 leukemia [2]; 100 mg/kg IP days 1-9, Expt. 1): -2.9 g
ILS (L1210 leukemia [2]; 100 mg/kg IP days 1-9, Expt. 2): 141%
MST (L1210 leukemia [2]; 100 mg/kg IP days 1-9, Expt. 2): 19.3 days
Wt. Change (L1210 leukemia [2]; 100 mg/kg IP days 1-9, Expt. 2): -4.8 g
ILS (L1210 leukemia [2]; 100 mg/kg IP days 1-9, Expt. 3): 95%
MST (L1210 leukemia [2]; 100 mg/kg IP days 1-9, Expt. 3): 16.0 days
Wt. Change (L1210 leukemia [2]; 100 mg/kg IP days 1-9, Expt. 3): -3.1 g
MST (L1210 leukemia [2]; [15]): 6.3 days
Wt. Change (L1210 leukemia [2]; [15]): -5.2 g
ILS (L1210 leukemia [2]; [16]): 156%
MST (L1210 leukemia [2]; [16]): 21.0 days
Wt. Change (L1210 leukemia [2]; [16]): -5.2 g
solubility of dosed preparation (L1210 leukemia [2]; Table 4 Expt. 1, vehicle water, 60 mg/kg and higher): insoluble
H2O Sol. % (g per 100 ml H2O) (Water solubility; water): 1.5 % (g per 100 ml H2O)

O=C1C2C3C=CC(C2C(=O)N1CN1CCOCC1)C1C2C(=O)N(CN4CCOCC4)C(=O)C2C31 (centres unmarked) [Example 5, 4,8-Ethenopyrro[3',4':3,4]cyclobut[1,2-f]isoindole-1,3,5,7(2H,6H)-tetrone,3a,3b,4,4a,7a,8,8a,8b-octahydro-2,6-bis(morpholinomethyl)]
solubility (Water solubility; water): 1000 µg/mL (≈ 2.13 mM)

O=C1C2C3C=CC(C2C(=O)N1CN1CCSCC1)C1C2C(=O)N(CN4CCSCC4)C(=O)C2C31 (centres unmarked) [Example 6, 4,8-Ethenopyrrolo[3'4':3,4]cyclobut[1,2-f]isoindole-1,3,5,7(2H,6H)-tetrone,3a,3b,4,4a,7a,8,8a,8-octahydro-2,6-bis(thiomorpholinomethyl)]
solubility (Water solubility; water): 1000 µg/mL (≈ 1.99 mM)

CCN(CC)CN1C(=O)C2C3C=CC(C2C1=O)C1C2C(=O)N(CN(CC)CC)C(=O)C2C31 (centres unmarked) [Example 7, 4,8-Ethenopyrrolo[3',4':3,4]cyclobut[1,2-f]isoindole-1,3,5,7(2H,6H)-tetrone,3a,3b,4,4a,7a,8,8a,8b-octahydro-2,6-bis(N,N-diethylaminomethyl)]
solubility (Water solubility; water): 1000 µg/mL (≈ 2.26 mM)

CC(=O)OCN1C(=O)C2C3C=CC(C2C1=O)C1C2C(=O)N(COC(C)=O)C(=O)C2C31 (centres unmarked) [Example 8, 4,8-Ethenopyrrolo3',4':3,4cyclobut[1,2-f]isoindole-1,3,5,7(2H,6H)-tetrone,3a,3b,4,4a,7a,8a,8b-octahydro-2,6-bis(acetyloxymethyl)]
T/C (P388): 208
fraction printed in brackets behind T/C (not explained) (P388): 1/5
solubility (Water solubility; water): 1000 µg/mL (≈ 2.4 mM)

NCC(=O)OCN1C(=O)C2C3C=CC(C2C1=O)C1C2C(=O)N(COC(=O)CN)C(=O)C2C31 (centres unmarked) [Example 9, 4,8-Ethenopyrrolo[3',4':3,4]cyclobut[1,2-f]isoindole-1,3,5,7(2H,6H)-tetrone,3a,3b,4,4a,7a,8,8a,8b-octahydro-2-,6bis(2-aminoacetyloxymethyl)]
solubility (Water solubility; water): 20000 µg/mL (≈ 44.8 mM)

O=C(O)CCC(=O)OCN1C(=O)C2C3C=CC(C2C1=O)C1C2C(=O)N(COC(=O)CCC(=O)O)C(=O)C2C31 (centres unmarked) [Example 10, 4,8-Ethenopyrrolo[3',4':3,4]cyclobut[1,2-f]isoindole-1,3,5,7(2H,6H)-tetrone,3a,3b,4,4a,7a,8,8a,8b-octahydro-2-,6-bis(succinyloxymethyl)]
solubility in water (Water solubility; freeze-dried powder after pH adjusted to 6.33 with sodium bicarbonate): readily soluble in water
solubility in water (Water solubility; title compound, 2.4 g mixed with 150 ml of water): not soluble
solubility (Water solubility; water): 20000 µg/mL (≈ 37.6 mM)

CC(=O)OC(C(=O)O)N1C(=O)C2C3C=CC(C2C1=O)C1C2C(=O)N(C(OC(C)=O)C(=O)O)C(=O)C2C31 (centres unmarked) [Example 11]
solubility in water (Water solubility; freeze-dried solid after pH adjusted to 6.11 with sodium bicarbonate): soluble in water
solubility (Water solubility; water): 50000 µg/mL (≈ 99.1 mM)
